Data published in patent US8410068B2, “Compounds for the treatment or alleviation of edema, and methods for their use” (Index Pharmaceuticals AB, priority 2007, dated 2013).

Experiments:
[1] = test system: tetradecanoylphorbol 13-acetate (TPA) induced ear edema; assay: TPA-induced ear edema model; assay type: in vivo, mice
Protocol: A stock solution of TPA was prepared by dissolving TPA in DMSO, 1 mg/mL, and was stored frozen at −80° C. For study B-E, a working solution was prepared with 200 μL of the TPA stock solution added to 800 μL acetone. The working solution was used the same day as it was prepared.
Each cage was identified by a cage card marked with study number, group number, ethical approval number, sex and animal ear numbers. The animals were individually marked on the tail with transverse lines corresponding to the animals' number, using a permanent-ink felt pen. An illustration of the protocols used for the different treatments is outlined in Table 4. The compounds were tested according to the same protocols with necessary modifications.
Intraperitoneal (i.p.) injections were performed by giving 100 μL in the lower right quadrant of the abdomen. Subcutaneous injections were done with 100 μL in the neck region. Intranasal administration was performed by letting the mouse inhale droplets into the nostrils, total volume 40 μL. All administrations were done on non-anesthetized mice.
(§1) Both outer ears of a non-anesthetized mouse were washed with mild soap (Palmolive, Sweden) using a soft tooth brush, the ears were dried with tissue and cleaned with tissue soaked with acetone. After allowing the acetone to evaporate, TPA or AA was applied on both sides, 10 μL, on each side of the ear with care to cover the whole ear. The mouse was held for 20 seconds to allow the solvent to evaporate.
Intraperitoneal injections were given in the lower right quadrant of the abdomen with the animal held in a supine position. Subcutaneous (s.c.) injections were given in the neck of the animals. Intranasal administrations were given to mice held in a slightly reclining position. With an adjustable micro-pipette 40 μL of the test substance was given in droplets on the nostrils and the mouse was allowed to aspirate at free will.
(§2) The ears of non-anesthetized mice were measured at different time points for up to 96 hours after the TPA was administered, or up to 24 hours for the AA model. The first measurements were done before the edema was induced. The thickness was recorded with a spring loaded dial micrometer (Limit, Thickness Gauge, accuracy 0.01 mm, contact area Ø6 mm, Luna AB, Allingsås, Sweden) in triplicates at all time points per ear.
(§3) The average thickness for both ears on a mouse was calculated and compared to the average thickness of the ears at the starting time point. The value obtained at the start of the experiment was set as 100%. The peak values and area under the curve (AUC) values for the treatment groups were calculated and compared to the inflamed control group, treated with PBS (set as 100%), and expressed as a percentage change (Δ% AUC).
(§4) Area under the curve (AUC) with base line set as 100 was calculated using GraphPad Prism version 4.03 for Windows (GraphPad Software, San Diego Calif. USA, www.graphpad.com).
AUC reduction and P-values were calculated against the positive control (TPA or AA+PBS).

[2] = test system: arachidonic acid (AA) induced ear edema; assay: Arachidonic acid (AA) induced ear edema model; assay type: in vivo, mice; details: 10 μg one single s.c. injection 20 minutes before AA; compared to PBS control
Protocol: A stock solution of AA was prepared by diluting AA in acetone, 4 mg/10 μL, and was stored frozen at −80° C. A final working solution, 1 mg/10 μL, in acetone was prepared. The working solution was used within one hour after preparation.
as §1, §2, §3, §4
In addition to the experiments done with the control compounds and IDX0001, all other test compounds were investigated in a similar fashion in the TPA and/or AA ear edema models, where the test compounds were given subcutaneously (10 μg) 20 minutes before induction of edema. The results were expressed as reduction of peak value and reduction of area under curve (AUC) in Table 5.

Substance: G*G*A*ACAGTTCGTCCAT*G*G*C (phosphorothioate linkages, as printed in the source, key not given here) [IDX0150, oligonucleotide used as control; * = phosphorothioate modification]
- average inflammatory peak value of swelling ([1]; FIG. 2, 100 μg IDX0150, combined from 10 experiments, vs PBS vehicle with TPA, P<0.001): very high statistical significant reduction in peak values
- Reduction of AUC compared to PBS ([1]; Study A / FIG. 1, 100 μg, one single injection (i.p. in Study A, s.c. in FIG. 1) 20 min before TPA, day 0): −38.9%
- reduction of AUC ([1]; Study B, 100 μg s.c. 4 days before induction of edema): no reduction of AUC
- reduction of AUC ([1]; Study C (repeat of B), 100 μg s.c. 4 days before induction of edema): −22%
- reduction of AUC ([1]; Study D, 100 μg s.c. 2 days before induction of edema): −16.5%
- reduction of AUC ([1]; Study E, 100 μg s.c. same day, approx. 20 min before induction): −27.3%
- reduction of AUC ([1]; Study F, equal doses 50 μg s.c. same day as swelling induced): −31.1%
- reduction of AUC ([1]; Study G, therapeutic, 100 μg s.c. 2 hours after induction of edema): −42.3%
- reduction of AUC ([1]; Study H, 100 μg intranasal 4 days before swelling induced): −25.7%
- reduction of AUC ([1]; Study I, 100 μg intranasal day 0, same day as edema induced): −28.4%
- AUC reduced ([1]; Study J, therapeutic, 100 μg intranasal 2 hours after induction): −28.8%
- reduction of AUC ([1]; Study K dose response, 0.1 μg s.c. day 0): −13.9%
- reduction of AUC ([1]; Study K dose response, 1 μg s.c. day 0): −16.3%
- reduction of AUC ([1]; Study K dose response, 10 μg s.c. day 0): −27.9%
- reduction of AUC ([1]; Study K dose response, 100 μg s.c. day 0): −45%
- reduction of AUC ([1]; Study O, 10 μg given s.c. on day 0 (Table 4: i.n.)): −25.5%
- AUC reduction (%) AA [2]: −89.4%
